Results taken from US8648045B2, “VDAC1 compositions and methods of use thereof for regulating apoptosis” (Ben Gurion University of the Negev Research and Development …, priority 2005, dated 2014).
Where two headings read alike, the source gives them in different places. Values belong to the compound of their own block, whether it stands above or below them. Peptide text beside a SMILES is read from it.

How the values were obtained:
HeLa = assay: Apoptosis induction by various stimuli (acridine orange/ethidium bromide staining); assay type: cell-based, human
Experimental: (§1) Cells were plated at a density of 5.4×10^4 cells/cm^2 in 24-well plates, washed once with PBS and placed in serum-free medium. Cells were then incubated with or without RuR or Ru360. Cells were also treated with […] staurosporine (STS) to induce apoptosis and analyzed for viability 3, 5 and 7 hrs after STS addition. Treatments with curcumin (120 μM) or As2O3 (20 μM) were carried out for 48 hrs.
(§2) To determine cell viability, cells were stained with 100 μg/ml acridine orange (AcOr) and 100 μg/ml ethidium bromide (EtBr) in PBS. Cells were centrifuged at 1500×g for 5 min at room temperature and resuspended in 25 μl of complete medium, to which 2 μl of AcOr/EtBr solution were added. The cells were then visualized by fluorescence microscopy (Olympus IX51) and images were recorded on an Olympus DP70 camera, using a SWB filter.
(§3) Cells were incubated with curcumin (120 μM) or As2O3 (20 μM) for 48 hrs, or with STS (1.25 μM) for 7 hrs. Cell viability was analyzed by acridine orange/ethidium Bromide staining. In each independent experiment, approximately 250 cells were counted for each treatment, in which early and late apoptotic cells were also counted. The data shown in table 3 is the mean±S.E.M. (n=3).

Du-145 = assay: as above; assay type: cell-based, human
Experimental: as §1, §2, §3

Panc = assay: as above; assay type: cell-based, human
Experimental: as §1, §2, §3

B-16 = assay: as above; assay type: cell-based, mouse
Experimental: as §1, §2, §3

MEC-1 cell line = assay type: cell-based, human
Experimental: (§4) PBMCs (2×10^6 cells/sample) from CLL patients and healthy donors were treated with various concentrations of the peptide Antp-LP4-trp for 90 minutes. Cells were then gently washed once with PBS and stained with propidium iodide (PI) by adding 2.5 μl (1 mg/ml) and immediately analyzed for cell death. The level of cell death, reflected by the percentage of PI-positive cells, was determined by a flow cytometry analysis.
(§5) Preipheral blood mononuclear cells (PMBC) isolated from pateints having chronic lymphocytic leukemia (CLL) and MEC-1 cell lines (human chronic B-cell leukemia) were incubated for 90 min with Peptide N-ANTP (SEQ ID NO:73) at concentrations of 10-40 μM. Cell death was measured by PI staning and FACS analysis.

[1] = system: PBMCs isolated from CLL patients; assay type: cell-based, human
Experimental: Peripheral blood mononuclear cells (PBMCs) were isolated from venous blood of patients with chronic lymphocytic leukemia (CLL) by Ficoll-Paque PLUS (GE Healthcare, Israel) density gradient centrifugation. After informed consent, venous blood (10 ml) was drawn from CLL patients satisfying diagnostic criteria for CLL or from normal adult donors. Blood was collected into heparin tubes and diluted 1:1 with balance solution (composed of two stock solutions, A and B, in 1:9 ratio, respectively. Solution A contained: D-glucose 1%, CaCl2 5×10^−5M, MgCl2 9.8×10^−4M, KCl 5.4×10^−3M, Tris 0.145M, pH 7.6. Solution B contained NaCl 0.14M. The balance solution was prepared freshly every week. The diluted blood sample was subsequently carefully layered on Ficoll-Paque Plus (10 ml of diluted blood: 15 ml Ficoll) in 50 ml conical tubes. Tubes were centrifuged at 400×g (with minimal acceleration and deceleration) for 40 minutes at 18-20° C. The mononuclear cells fine layer was transferred to a new centrifuge tube. Cells were washed 3 times with balance solution and re-suspended in a culture medium appropriate to the application.
as §4, §5
In ex vivo experiments, peripheral blood mononuclear cells (PBMCs) isolated from healthy individuals or CLL patients were incubated for 90 min with the indicated concentration of the ANTP-LP4-trp peptide. Cell death was assayed by PI staining and FACS analysis (healthy donors, n=34; CLL donors, n=39).

U937 cells [2] = assay: HK-I over-expression protection against apoptotic cell death in double-transfected cells; assay type: cell-based, human; settings: U937 or T-Rex 293 cells stably over-expressing HK-I, mVDAC1-GFP constructs
Experimental: U937 cells were transfected with pcDNA3.1-HisA or pcDNA3.1-HisA-HK-I (neomycin resistance; provided by Dr. J. E. Wilson, University of Michigan) by electroporation, and grown in complete RPMI 1640 with neomycin ([…]). After 12 days, the selected cells were transfected with pEGFP, pEGFP-mVDAC1 or pEGFP-E72Q-mVDAC1 and were grown in the presence of neomycin ([…]). The viability of double-transfected cells was analyzed during 48 to 76 hr.
The effect of HK-I over-expression on apoptotic cell death of the GFP-tagged version of native and E72Q-mVDAC1 over-expressing cells was examined.
Since VDAC1 overexpression induces cell death, U937 cells (FIG. 4A, 4B) or T-Rex™ 293 human embryonic kidney cells (FIG. 4B) were first transformed to stably over-express HK-I and then transfected with native, E65Q, E72Q, K73L, D77N, N75A, or G67A mutated mVDAC1-GFP. […] This β-loop includes amino acid residues T64 to about N78.

U937 cells [3] = assay: Apoptotic cell death of U937 cells transfected with native or mutated mVDAC1, with/without RuR (acridine orange/ethidium bromide staining); assay type: cell-based, human
Experimental: Logarithmically-growing U937 cells were resuspended in RPMI 1640 supplemented with 10% FCS, 100 U/ml penicillin and […] streptomycin at a concentration of 2.5×10^7 cells/ml. Cells were transfected to express rat or murine VDAC1 using the vectors pEGFP, pEGFP-VDAC1, pEGFP-E72Q-mVDAC1, pE-mVDAC1 or pE-E72Q-mVDAC1. Transfection of the U937 cells was performed by electroporation with a single pulse from a Bio-Rad micropulser II with a capacitance extender unit (200 V, […]). Cells were incubated on ice for 10 min before and after transfection, and then resuspended in 20 ml of RPMI 1640 supplemented with 10% FCS, 1 mM l-glutamine, 100 U/ml penicillin and […] streptomycin. […] GFP-positive cells were viewed under a microscope using a blue filter.
as §1
Fifty six (56) hr after transfection, cells were exposed for 20 hr to RuR (1 μM) and cell viability was analyzed using acridine orange/ethidium bromide staining. In each independent experiment, approximately 250 cells were counted for each including early and late apoptotic cells. Data shown in FIG. 5 and Table 2 are the mean±SEM (n=3).

Compound: O=[As]O[As]=O (centres unmarked) [As2O3]
Apoptotic cell death, % of control (HeLa; As2O3 20 μM, 48 hrs): 24.67 ± 2.65 % of control | Apoptotic cell death, % of control (Du-145; As2O3 20 μM, 48 hrs): 6.0 ± 0.80 % of control | Apoptotic cell death, % of control (Panc; As2O3 20 μM, 48 hrs): 67.20 ± 3.87 % of control | Apoptotic cell death, % of control (B-16; As2O3 20 μM, 48 hrs): 15.0 ± 1.99 % of control

Compound: COc1cc(/C=C/C(=O)CC(=O)/C=C/c2ccc(O)c(OC)c2)ccc1O [Curcumin, curcumin]
Apoptotic cell death, % of control (HeLa; curcumin 120 μM, 48 hrs): 36.2 ± 0.70 % of control | Apoptotic cell death, % of control (Du-145; curcumin 120 μM, 48 hrs): 8.93 ± 0.47 % of control | Apoptotic cell death, % of control (Panc; curcumin 120 μM, 48 hrs): 70.77 ± 4.31 % of control | Apoptotic cell death, % of control (B-16; curcumin 120 μM, 48 hrs): 37.47 ± 2.20 % of control

Compound: CN[C@@H]1C[C@H]2O[C@@](C)([C@@H]1OC)n1c3ccccc3c3c4c(c5c6ccccc6n2c5c31)C(=O)NC4 [STS, staurosporine]
Apoptotic cell death, % of control (HeLa; STS 1.25 μM, 7 hrs): 72.37 ± 1.30 % of control | Apoptotic cell death, % of control (Du-145; STS 1.25 μM, 7 hrs): 13.57 ± 4.73 % of control | Apoptotic cell death, % of control (Panc; STS 1.25 μM, 7 hrs): 84.90 ± 2.06 % of control | Apoptotic cell death, % of control (B-16; STS 1.25 μM, 7 hrs): 63.12 ± 0.71 % of control

Compound: CC(C)C[C@H](NC(=O)[C@H](CC(N)=O)NC(=O)[C@@H](NC(=O)[C@H](C)NC(=O)[C@@H](NC(=O)[C@H](CCC(=O)O)NC(=O)[C@H](CC(C)C)NC(=O)[C@H](CCCCN)NC(=O)[C@H](CCCCN)NC(=O)[C@H](CCC(=O)O)NC(=O)[C@H](Cc1c[nH]c2ccccc12)NC(=O)[C@@H](NC(=O)[C@H](Cc1c[nH]c2ccccc12)NC(=O)[C@H](CO)NC(=O)CNC(=O)CNC(=O)[C@H](CCCNC(=N)N)NC(=O)[C@H](CCCNC(=N)N)NC(=O)[C@H](CCCNC(=N)N)NC(=O)[C@H](CCC(N)=O)NC(=O)[C@H](CCCNC(=N)N)NC(=O)[C@H](CCCNC(=N)N)NC(=O)[C@H](CCCCN)NC(=O)[C@H](CCCCN)NC(=O)[C@@H](N)CCCNC(=N)N)[C@@H](C)O)[C@@H](C)O)C(C)C)C(=O)N[C@@H](C)C(=O)N[C@@H](Cc1c[nH]c2ccccc12)C(=O)N[C@H](C(=O)N[C@@H](C)C(=O)NCC(=O)N[C@@H](CC(N)=O)C(=O)N[C@@H](CO)C(=O)N[C@@H](CC(N)=O)C(=O)N[C@@H](CCCCN)C(=O)N[C@@H](Cc1c[nH]c2ccccc12)C(=O)N[C@H](C(=O)N[C@@H](Cc1c[nH]c2ccccc12)C(=O)N[C@@H](CCCCN)C(=O)O)[C@@H](C)O)[C@@H](C)O [TAT-LP4-trp] (H-RKKRRQRRRGGSWTWEKKLETAVNLAWTAGNSNKWTWK-OH; N-terminus and C-terminus assumed)
IC50 (MEC-1 cell line; peptide concentration required to induce apoptosis in 50% of the cells, MEC-1, read-out: IC50 μM MEC-1): 6 to 7 µM | IC50 ([1]; peptide concentration required to induce apoptosis in 50% of the cells, PBMC from CLL patients, read-out: IC50 μM CLL): 3.5 to 4 µM

IC50 (MEC-1 cell line): 2.4 to 3 µM
Compound: CC[C@H](C)[C@H](NC(=O)[C@H](C)NC(=O)[C@@H](N)Cc1c[nH]cn1)C(=O)N[C@@H](Cc1ccc(O)cc1)C(=O)N1CCC[C@H]1C(=O)N[C@@H](CCCNC(=N)N)C(=O)N[C@@H](Cc1c[nH]cn1)C(=O)N[C@@H](CO)C(=O)N[C@@H](Cc1c[nH]c2ccccc12)C(=O)N[C@H](C(=O)N[C@@H](Cc1c[nH]c2ccccc12)C(=O)N[C@@H](CCC(=O)O)C(=O)N[C@@H](CCCCN)C(=O)N[C@@H](CCCCN)C(=O)N[C@@H](CC(C)C)C(=O)N[C@@H](CCC(=O)O)C(=O)N[C@H](C(=O)N[C@@H](C)C(=O)N[C@H](C(=O)N[C@@H](CC(N)=O)C(=O)N[C@@H](CC(C)C)C(=O)N[C@@H](C)C(=O)N[C@@H](Cc1c[nH]c2ccccc12)C(=O)N[C@H](C(=O)N[C@@H](C)C(=O)NCC(=O)N[C@@H](CC(N)=O)C(=O)N[C@@H](CO)C(=O)N[C@@H](CC(N)=O)C(=O)N[C@@H](CCCCN)C(=O)N[C@@H](Cc1c[nH]c2ccccc12)C(=O)N[C@H](C(=O)N[C@@H](Cc1c[nH]c2ccccc12)C(=O)N[C@@H](CCCCN)C(=O)O)[C@@H](C)O)[C@@H](C)O)C(C)C)[C@@H](C)O)[C@@H](C)O [Tf-LP4-trp]
IC50 [1]: 1.5 to 2 µM

Compound: D77N-mVDAC1: VDAC1 polypeptide variant D77N [Peptide D77N-mVDAC1]
protective effect of HK-I over-expression against cell death induced by mVDAC1 over-expression (U937 cells [2]): no protective effect

Compound: E65Q-mVDAC1: VDAC1 polypeptide variant E65Q [Peptide E65Q-mVDAC1]
protective effect of HK-I over-expression against cell death induced by mVDAC1 over-expression (U937 cells [2]): no protective effect

Compound: E72Q-mVDAC1: VDAC1 polypeptide variant E72Q [Peptide E72Q-mVDAC1]
protective effect of HK-I over-expression against cell death induced by mVDAC1 over-expression (U937 cells [2]): no protective effect

Compound: E72Q-mVDAC-GFP: GFP-tagged E72Q mVDAC1 variant
% of protection (U937 cells [3]; protection by RuR (1 μM) against apoptosis of transfected U937 cells): 0% | Apoptotic cells, % −RuR (U937 cells [3]; transfected U937 cells, without RuR, mean±SEM (n=3)): 71.9 ± 4.7% | Apoptotic cells, % +RuR (U937 cells [3]; transfected U937 cells, 56 hr after transfection exposed 20 hr to RuR (1 μM), mean±SEM (n=3)): 71.6 ± 4.4%

Compound: E202Q-mVDAC1: VDAC1 polypeptide variant E202Q [Peptide E202Q-mVDAC1]
protective effect of HK-I over-expression against cell death induced by mVDAC1 over-expression (U937 cells [2]): no protective effect

Compound: G67A-mVDAC1: VDAC1 polypeptide variant G67A [Peptide G67A-mVDAC1]
protective effect of HK-I over-expression against cell death induced by mVDAC1 over-expression (U937 cells [2]): dramatically reduced

Compound: K73L-mVDAC1: VDAC1 polypeptide variant K73L [Peptide K73L-mVDAC1]
protective effect of HK-I over-expression against cell death induced by mVDAC1 over-expression (U937 cells [2]): no protective effect

Compound: N75A-mVDAC1: VDAC1 polypeptide variant N75A [Peptide N75A-mVDAC1]
protective effect of HK-I over-expression against cell death induced by mVDAC1 over-expression (U937 cells [2]): dramatically reduced
